Assays:
[1] = system: beet armyworm (BAW; Spodoptera exigua: Lepidoptera); experiment: 128-well diet tray assay on beet armyworm (BAW 50); type: in vivo; conditions: for BAW 50 ug/cm2: 128-well diet tray assay, 50 μg/cm^2 of test compound on diet, second instar BAW larvae, mortality class
Method in brief: (§1)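 Percent larval mortality after six days was the endpoint. Higher-throughput plates used eggs, 12 μg compound per well and 29° C darkness; trays used second instar larvae, a 50 μg/cm^2 dose and 25° C with 14:10 light cycle.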

[2] = system: beet armyworm (BAW; Spodoptera exigua: Lepidoptera); experiment: 96-well microtiter plate-based high throughput (HTS) diet bioassay on beet armyworm (BAW HTS); type: in vivo; conditions: for BAW HTS: 12 μg test compound per well, BAW eggs, mortality at 6 d post-treatment, mortality class
Method in brief: as §1

[3] = 96-well microtiter plate HTS diet assay

SMILES | BAW 50 ug/cm2 [1] | pest or weed control at 50 µg/cm2, 50 µg/cm2 ([1]; Spodoptera exigua, 144 h, read-out: BAW 50 ug/cm2) | BAW HTS [2, 3] | pest or weed control at 12 µg/well, 12 µg/well ([2]; Spodoptera exigua, 144 h, read-out: BAW HTS) | BAW HTS ([2]; 96-well HTS diet bioassay)
CCCO[C@@H]1[C@@H](OC)[C@H](C)O[C@@H](OC(=O)Nc2ccc(-c3ncn(-c4ccc(OC(F)(F)C(F)(F)F)cc4)n3)cc2)[C@@H]1OC [Compound 207, {4-[1-(4-pentafluoroethyloxyphenyl)-1H-[1,2,4]triazol-3-yl]-phenyl}-carbamic acid (2S,3R,4R,5S,6S)-4-propoxy-3,5-dimethoxy-6-methyl-tetrahydropyran-2-yl ester] | A (the compound was tested and at least 50 percent mortality was observed) | > 50% | B (either (1) the compound was tested and less than 50 percent mortality was observed or (2) the compound was not tested) | < 50% | 
COC1C(C)OC(ON=Cc2ccc(-c3cn(-c4ccc(I)cn4)cn3)cc2)C(OC)C1OC (stereo not shown) [Compound 39] | A (the compound was tested and at least 50 percent mortality was observed) |  | B (either (1) the compound was tested and less than 50 percent mortality was observed or (2) the compound was not tested) |  | B (either (1) the compound was tested and less than 50 percent mortality was observed or (2) the compound was not tested)
